Results as given in ChEMBL document CHEMBL1201862, “PubChem BioAssay data set” (2004).
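How tested: cells in 96-well plates exposed to compound for 48 hours at five concentrations. Abbreviation: GI50, concentration required for 50% inhibition of growth.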 Calls of active or inactive are those of the source. Rule as the data show it: active = GI50 up to about 1.1 µM and inactive = higher.

Tests used:
Experiment in all cases: growth of human tumour cells (NCI), 48 h
Malme-3M = test system: Malme-3M
ACHN = test system: ACHN
SF-295 = test system: SF-295
RPMI-8226 = test system: RPMI-8226
OVCAR-8 = test system: OVCAR-8
NCI/ADR-RES = test system: NCI/ADR-RES
SR = test system: SR
UACC-62 = test system: UACC-62
HCT-15 = test system: HCT-15
SK-MEL-28 = test system: SK-MEL-28
KM12 = test system: KM12
OVCAR-4 = test system: OVCAR-4
COLO 205 = test system: COLO 205
T47D = test system: T47D
A549 = test system: A549
SN12C = test system: SN12C
SK-MEL-5 = test system: SK-MEL-5
NCI-H460 = test system: NCI-H460
MDA-N = test system: MDA-N
NCI-H226 = test system: NCI-H226

SMILES	GI50 (Malme-3M)	GI50 (ACHN)	GI50 (SF-295)	GI50 (RPMI-8226)	GI50 (OVCAR-8)	GI50 (NCI/ADR-RES)	GI50 (SR)	GI50 (UACC-62)	GI50 (HCT-15) [µM]	GI50 (SK-MEL-28)	GI50 (KM12)	GI50 (OVCAR-4)	GI50 (COLO 205)	GI50 (T47D)	GI50 (A549)	GI50 (SN12C)	GI50 (SK-MEL-5)	GI50 (NCI-H460)	GI50 (MDA-N)	GI50 (NCI-H226)
CC[C@H](C)C1=C(O)[N@+]2([O-])Oc3ccc(-c4c(O)c(O)c(-c5ccc(OC(C)=O)cc5)c(OC(C)=O)c4OC(C)=O)cc3O[C@]2([C@@H](C)CC)C(=O)N1O	17.1 µM (inactive)	26.3 µM (inactive)	21.6 µM (inactive)	12.8 µM (inactive)	24.5 µM (inactive)	12.9 µM (inactive)	12.5 µM (inactive)	15 µM (inactive)	19.7	33 µM (inactive)	29.9 µM (inactive)	8.79 µM (inactive)	16.3 µM (inactive)	21.7 µM (inactive)	16.3 µM (inactive)	17.2 µM (inactive)	20 µM (inactive)	21.5 µM (inactive)	34 µM (inactive)	–
CC(C)(C)c1cc(C(C)(C)C)c2sc(=O)oc2c1O	16.5 µM (inactive)	12.1 µM (inactive)	11.4 µM (inactive)	21.3 µM (inactive)	16.3 µM (inactive)	16.3 µM (inactive)	4.98 µM (inactive)	–	12.4	16.3 µM (inactive)	14.1 µM (inactive)	13.6 µM (inactive)	18.8 µM (inactive)	6.14 µM (inactive)	13.2 µM (inactive)	12.4 µM (inactive)	14.4 µM (inactive)	5.61 µM (inactive)	13.5 µM (inactive)	20.2 µM (inactive)
O=C(CC(C(=O)c1ccsc1)c1ccccc1)c1cccs1 (stereo unspecified)	–	67.6 µM (inactive)	33.3 µM (inactive)	> 100 µM (inactive)	58.1 µM (inactive)	22.5 µM (inactive)	57.4 µM (inactive)	24.8 µM (inactive)	56.9	> 100 µM (inactive)	26.8 µM (inactive)	55 µM (inactive)	> 100 µM (inactive)	11.8 µM (inactive)	–	> 100 µM (inactive)	43.2 µM (inactive)	27.1 µM (inactive)	69.2 µM (inactive)	> 100 µM (inactive)
Nc1c(Cl)cc(-c2nc3ccccc3s2)cc1Cl	> 100 µM (inactive)	> 100 µM (inactive)	> 100 µM (inactive)	–	> 100 µM (inactive)	> 100 µM (inactive)	> 100 µM (inactive)	> 100 µM (inactive)	> 100	> 100 µM (inactive)	> 100 µM (inactive)	–	> 100 µM (inactive)	4.16 µM (inactive)	> 100 µM (inactive)	> 100 µM (inactive)	> 100 µM (inactive)	0.556 µM (active)	> 100 µM (inactive)	> 100 µM (inactive)
CC(C)CCNC(=O)c1ccc(CNC(=O)/C=C/c2ccc3ccccc3c2)cc1	–	> 100 µM (inactive)	> 100 µM (inactive)	> 100 µM (inactive)	> 100 µM (inactive)	> 100 µM (inactive)	> 100 µM (inactive)	> 100 µM (inactive)	> 100	> 100 µM (inactive)	> 100 µM (inactive)	59.3 µM (inactive)	> 100 µM (inactive)	> 100 µM (inactive)	> 100 µM (inactive)	> 100 µM (inactive)	> 100 µM (inactive)	> 100 µM (inactive)	> 100 µM (inactive)	> 100 µM (inactive)
CC[C@H](C)C1=C(OC(C)=O)[N@+]2([O-])Oc3ccc(-c4c(O)c(O)c(-c5ccc(OC(C)=O)cc5)c(OC(C)=O)c4OC(C)=O)cc3O[C@]2([C@@H](C)CC)C(=O)N1O	16.6 µM (inactive)	14.9 µM (inactive)	22.8 µM (inactive)	7.85 µM (inactive)	18.4 µM (inactive)	18.5 µM (inactive)	13.6 µM (inactive)	14.7 µM (inactive)	19.2	27 µM (inactive)	20.6 µM (inactive)	11.1 µM (inactive)	19.8 µM (inactive)	15.1 µM (inactive)	18.8 µM (inactive)	19.4 µM (inactive)	16.4 µM (inactive)	18.5 µM (inactive)	23.2 µM (inactive)	–
COP(=O)(OC)[C@@](O)(c1ccccc1)[C@@H](O)[C@@H](O)c1ccccc1	> 100 µM (inactive)	> 100 µM (inactive)	> 100 µM (inactive)	–	> 100 µM (inactive)	> 100 µM (inactive)	0.531 µM (active)	> 100 µM (inactive)	> 100	> 100 µM (inactive)	> 100 µM (inactive)	> 100 µM (inactive)	> 100 µM (inactive)	> 100 µM (inactive)	> 100 µM (inactive)	> 100 µM (inactive)	> 100 µM (inactive)	> 100 µM (inactive)	85.3 µM (inactive)	> 100 µM (inactive)
C=CCC(CNC(=O)OCc1ccccc1)O[Si](C)(C)C(C)(C)C (stereo unspecified)	–	33.6 µM (inactive)	35.2 µM (inactive)	20 µM (inactive)	45.3 µM (inactive)	36.9 µM (inactive)	18.5 µM (inactive)	23.2 µM (inactive)	35.9	48 µM (inactive)	34 µM (inactive)	46.7 µM (inactive)	16.6 µM (inactive)	22.9 µM (inactive)	30.1 µM (inactive)	31.2 µM (inactive)	16.6 µM (inactive)	25.6 µM (inactive)	34.8 µM (inactive)	25.9 µM (inactive)
CCCc1nc(Cl)c(Cl)c(Cl)n1	10.7 µM (inactive)	–	> 60.4 µM (inactive)	–	18.7 µM (inactive)	27 µM (inactive)	5.78 µM (inactive)	36.5 µM (inactive)	15.8	56.5 µM (inactive)	38.6 µM (inactive)	16 µM (inactive)	25.4 µM (inactive)	17.5 µM (inactive)	19.1 µM (inactive)	19.6 µM (inactive)	44.5 µM (inactive)	38.9 µM (inactive)	33.8 µM (inactive)	36.6 µM (inactive)
C=C1C(=O)O[C@@H]2C=C(C)C3=CC(=O)[C@](C)(C[C@H](OC(=O)/C(C)=C\C)[C@@H]12)O3	–	0.489 µM (active)	2.42 µM (inactive)	0.2 µM (active)	0.51 µM (active)	0.67 µM (active)	0.201 µM (active)	0.508 µM (active)	0.328	1.24 µM (inactive)	1.3 µM (inactive)	4.88 µM (inactive)	0.51 µM (active)	0.916 µM (active)	1.73 µM (inactive)	1.92 µM (inactive)	0.542 µM (active)	2.18 µM (inactive)	0.311 µM (active)	2.28 µM (inactive)
NC(C(F)(F)F)(C(F)(F)F)P(=O)(Cc1ccccc1)Cc1ccccc1	> 100 µM (inactive)	> 100 µM (inactive)	> 100 µM (inactive)	> 100 µM (inactive)	> 100 µM (inactive)	> 100 µM (inactive)	> 100 µM (inactive)	> 100 µM (inactive)	> 100	> 100 µM (inactive)	> 100 µM (inactive)	> 100 µM (inactive)	> 100 µM (inactive)	> 100 µM (inactive)	> 100 µM (inactive)	> 100 µM (inactive)	> 100 µM (inactive)	> 100 µM (inactive)	> 100 µM (inactive)	–
